# Results reported in patent publication US11111232B2, “Substituted cyclobutylpyridine and cyclobutylpyrimidine compounds as indoleamine 2,3-dioxygenase (IDO) inhibitors” (MERCK SHARP & DOHME CORP., priority 2017, dated 2021).
# Columns and labels:
# Type in all cases: cell-based
# IDO1 [1] = molecular target: T1, IDO1 (Homo sapiens, UniProt P14902); assay: IDO1 cellular assay in Hela cells stimulated with IFNγ; conditions: IFNγ 100 ng/mL, 300 uM L-tryptophan, about 48 hours, fluorescence readout
# Procedure: IDO1 Cellular Assay in Hela Cells Stimulated with IFNγ
# Hela cells were cultured in complete Hela culture medium (90% EMEM, 10% heat-inactivated fetal bovine serum) and expanded to about 1×10^9 cells. The cells were then collected and frozen down at 1×10^7 cells/vial in 1 mL frozen medium (90% complete Hela culture medium, 10% DMSO)
# Compounds to be tested were serially diluted in ten 3-fold steps in DMSO starting from 10 mM DMSO stocks in Echo low volume plate(s).
# Frozen Hela cells were thawed and transferred into Hela assay medium (99% complete Hela culture medium, 1% Pen/Strep) with 20 mL medium/vial of cells. The cells were spun down at 250 g in a table top centrifuge for 5 min and suspended in same volume of Hela assay medium. […] Sterile L-tryptophan were added to the cells with final concentration of 300 uM L-tryptophan. A small aliquot (2 mL/plate) of Hela cells were set aside and were not treated with IFNγ, to serve as the Max-E control.
# Hela cells with and without IFNγ were dispensed to the respective wells of 384-well assay plates containing the compounds. The plates were incubated for about 48 hours at a 37° C., 5% CO2 incubator. Afterwards, […] of 0.5 M methyl isonipecotate in dimethyl sulfoxide were added into each well and the plates were sealed and incubated at 37° C. without CO2 overnight. The plates were centrifuged for 1 min at 200×g. The resulting fluorescence was measured in a Spectramax plate reader (Molecular Devices) with a 400 nm excitation filter and a 510 nm emission filter.
# Potencies were calculated by linear least squares fit to the four parameter logistic IC50 equation.
# TDO = molecular target: T2, TDO (Homo sapiens, UniProt P48775); assay: TDO cellular assay in frozen SW48 cells; conditions: 300 uM L-tryptophan, about 48 hours, fluorescence readout
# T2 construct: endogenous in cells; host or cells: SW48 cells (A2780 cells as low-TDO control)
# Procedure: TDO Cellular Assay in Frozen SW48 Cells
# SW48 cells were cultured in complete RPMI culture medium (90% RPMI, 10% heat-inactivated fetal bovine serum).
# Compounds to be tested were serially diluted in ten 3-fold steps in DMSO starting from 10 mM DMSO stocks in Echo low volume plate(s). […] The cells were spun down at 350 g in a table top centrifuge for 5 minutes and suspended in same volume of RPMI assay medium. […] Sterile L-tryptophan (Sigma, Cat #T0254) was added to the cells with final concentration of 300 uM.
# SW48 and A2780 cells were dispensed to the respective wells of 384-well assay plates containing the compounds. The plates were incubated for about 48 hours at a 37° C., 5% CO2 incubator. Afterwards, 12 μL of 0.5 M ethyl isonipecotate (Sigma Aldrich, Cat #E33505) in dimethyl sulfoxide were added into each well and the plates were sealed and incubated at 37° C. without CO2 overnight. The plates were centrifuged for 1 minute at 200×g. The resulting fluorescence was measured in a Spectramax plate reader (Molecular Devices) with a 400 nm excitation filter and a 510 nm emission filter.
# The fluorescence intensity of each well was corrected for the background observed in wells with A2780 cells and was expressed as a fraction of the intensity observed in wells of SW48 cells and DMSO only. Potencies were calculated by linear least squares fit to the four parameter logistic IC50 equation.
# IDO1 [2] = molecular target: T1, IDO1; assay: IDO1 human whole blood assay; parameters: Human whole blood was drawn in sodium heparin coated tubes from healthy internal donors; from tissue; host or cells: human whole blood from healthy donors, stimulated with LPS and IFNγ; conditions: LPS and IFNγ 100 ng/mL, 18 h, kynurenine by LC/MS/MS
# Procedure: IDO1Human Whole Blood Assay
# Compounds to be tested were serially diluted in ten 3-fold steps in DMSO starting from 10 mM. […] LPS and IFNγ was prepared in RPMI to a 10× of final conc. (1000 ng/mL), final concentration is 100 ng/mL.
# Human whole blood was drawn in sodium heparin coated tubes from healthy internal donors. […] of blood was transferred to each of the wells of a v-bottom 96 well plate. […] of compound was transferred from intermediate dilution plate, and incubated for 15 min. 30 μL from stimulants was then transferred to blood and mixed thoroughly. Plate was covered with breathable membrane and incubated at 37° C. for overnight (18 h).
# On day 2 isotope labeled standard of kynurenine and tryptophan was made in water at 10× concentration and […] was added to the blood at […] final concentration. The assay plates were centrifuged at 300×G for 10 min with no brake to separate plasma from red blood cells. […] of plasma samples was removed without disturbing red blood cells. Plasma was diluted with RPMI in 1:1 ratio and proteins were precipitated out with two volume of Acetonitrile. The plates was centrifuged at 4000×G for 60 min. 20 mL of supernatant was carefully transferred to a 384 well plate contain 40 mL of 0.1% formic acid in water and analyzed by LC/MS/MS.
# LC/MS/MS analyses were performed using Thermo Fisher's LX4-TSQ Quantum Ultra system. This system consists of four Agilent binary high-performance liquid chromatography (HPLC) pumps and a TSQ Quantum Ultra triple quadruple MS/MS instrument. For each sample, […] were injected onto an Atlantis T3 column (2.1 mm×150 mm, […]) from Waters. The mobile phase gradient pumped at 0.8 mL/min was used to elute the analytes from the column at 25° C. […] Mobile phase A consisted of 0.1% formic acid in water. Mobile phase B consisted of 0.1% of formic acid in acetonitrile. Data was acquired in positive mode using a HESI interface. The operational parameters for the TSQ Quantum Ultra instrument were a spray voltage of 4000 V, capillary temperature of 380° C., vaporizer temperature 400° C., shealth gas 60 arbitrary units, Aux gas 20 arbitrary units, tube lens 85 and collision gas 1.2 mTorr. […] The peak area was integrated by Xcalibur Quan software. The ratios between the kynurenine generated in the reaction and 2D6-Kynurenine spiked-in internal standard were used to generate percentage inhibition and IC50 values. Compounds were titrated and IC50′s were calculated by 4 parameter sigmoidal curve fitting formula.
# T2 sequence (P48775 whole entry): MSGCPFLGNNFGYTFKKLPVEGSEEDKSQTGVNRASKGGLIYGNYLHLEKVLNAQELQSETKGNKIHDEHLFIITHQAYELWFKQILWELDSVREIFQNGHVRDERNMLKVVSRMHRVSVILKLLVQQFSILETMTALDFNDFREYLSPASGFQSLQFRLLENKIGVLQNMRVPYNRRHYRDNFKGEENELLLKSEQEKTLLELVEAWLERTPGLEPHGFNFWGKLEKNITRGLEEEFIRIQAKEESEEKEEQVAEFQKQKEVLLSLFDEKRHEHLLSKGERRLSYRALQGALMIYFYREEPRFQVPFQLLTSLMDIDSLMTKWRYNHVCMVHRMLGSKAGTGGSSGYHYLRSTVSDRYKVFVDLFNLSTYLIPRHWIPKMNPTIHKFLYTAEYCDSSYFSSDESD
# T1 sequence (P14902 whole entry): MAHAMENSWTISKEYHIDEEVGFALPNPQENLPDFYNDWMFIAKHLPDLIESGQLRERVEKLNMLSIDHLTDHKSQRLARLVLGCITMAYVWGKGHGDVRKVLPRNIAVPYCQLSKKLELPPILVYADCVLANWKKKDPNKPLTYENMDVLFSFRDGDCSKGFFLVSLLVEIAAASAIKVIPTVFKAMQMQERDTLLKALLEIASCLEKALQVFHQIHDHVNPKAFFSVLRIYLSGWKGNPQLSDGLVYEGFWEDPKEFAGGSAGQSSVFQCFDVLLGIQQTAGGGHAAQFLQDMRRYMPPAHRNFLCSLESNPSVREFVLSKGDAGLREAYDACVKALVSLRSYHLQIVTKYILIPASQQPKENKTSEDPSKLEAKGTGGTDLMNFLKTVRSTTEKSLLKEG
Structure (SMILES),IC50 (IDO1 [1]),IC50 (TDO),IC50 (IDO1 [2])
"O=C(Nc1ccc(C2(C(=O)Nc3ccc(F)nc3)CCC2)cn1)C1CCCCC1 [Example 7, N-(5-{1-[(6-fluoropyridin-3-yl)carbamoyl]cyclobutyl}pyridin-2-yl) cyclohexanecarboxamide]",0.025 µM,≥ 10 µM,8.56 µM
"O=C(Nc1ccc(C2(C(=O)Nc3ccc(F)cc3)CCC2)cn1)c1cccc(Cl)c1F [Example 14, 3-chloro-2-fluoro-N-(5-{1-[(4-fluorophenyl)carbamoyl]cyclobutyl}pyridin-2-yl)benzamide]",2.08 µM,≥ 10 µM,0.157 µM
"O=C(Nc1ccc(C2(C(=O)Nc3ccc(F)cc3)CCC2)cn1)c1cccc(F)c1 [Example 23, 3-Fluoro-N-(5-(1-((4-fluorophenyl)carbamoyl)cyclobutyl)pyridin-2-yl)benzamide]",0.003 µM,≥ 10 µM,0.102 µM
"N#Cc1cccc(C(=O)Nc2ccc(C3(C(=O)Nc4ccc(F)cc4)CCC3)cn2)c1 [Example 24, 3-cyano-N-(5-{1-[(4-fluorophenyl)carbamoyl]cyclobutyl}pyridin-2-yl)benzamide]",0.008 µM,≥ 10 µM,0.351 µM
"O=C(Nc1ccc(C2(C(=O)Nc3ccc(F)cc3)CCC2)cn1)c1cncc(Cl)c1 [Example 25, 5-chloro-N-(5-{1-[(4-fluorophenyl)carbamoyl]cyclobutyl}pyridin-2-yl)pyridine-3-carboxamide]",0.012 µM,≥ 10 µM,0.561 µM
"O=C(Nc1ccc(C2(C(=O)Nc3ccc(F)cc3)CCC2)cn1)c1ccnc(C(F)(F)F)c1 [Example 29, N-(5-{1-[(4-fluorophenyl)carbamoyl]cyclobutyl}pyridin-2-yl)-2-(trifluoromethyl)pyridine-4-carboxamide]",0.028 µM,≥ 10 µM,2.88 µM
"O=C(Nc1ccc(C2(C(=O)Nc3ccc(F)cc3)CCC2)nc1)c1cccc(Cl)c1 [Example 36, 3-Chloro-N-(6-(1-((4-fluorophenyl)carbamoyl)cyclobutyl)pyridin-3-yl)benzamide]",0.003 µM,≥ 10 µM,0.252 µM
"O=C(Nc1ccc(C2(C(=O)Nc3ccc(F)cn3)CCC2)nc1)c1cccc(Cl)c1 [Example 37, 3-chloro-N-(6-{1-[(5-fluoropyridin-2-yl)carbamoyl]cyclobutyl}pyridin-3-yl)benzamide]",0.015 µM,≥ 10 µM,1.76 µM
"O=C(Nc1ccc(C2(NC(=O)c3ccc(Cl)nc3)CCC2)nc1)c1cc(F)cc(F)c1 [Example 41, 6-chloro-N-(1-{5-[(3,5-difluorobenzene-1-carbonyl)amino]pyridin-2-yl}cyclobutyl)pyridine-3-carboxamide]",0.009 µM,≥ 10 µM,0.406 µM
"O=C(Nc1ccc(C2(NC(=O)c3ccc(Cl)nc3)CCC2)nc1)c1cccc(Cl)c1 [Example 42, 6-chloro-N-(1-{5-[(3-chlorobenzene-1-carbonyl)amino]pyridin-2-yl}cyclobutyl)pyridine-3-carboxamide]",0.008 µM,≥ 10 µM,0.696 µM
"Cc1cc(C(=O)Nc2ccc(C3(NC(=O)c4ccc(Cl)nc4)CCC3)nc2)ccn1 [Example 46, 6-chloro-N-(1-{5-[(2-methylpyridine-4-carbonyl)amino]pyridin-2-yl}cyclobutyl)pyridine-3-carboxamide]",1.06 µM,≥ 10 µM,
"N#Cc1ccc(C(=O)Nc2ccc(C3(NC(=O)c4ccc(Cl)nc4)CCC3)nc2)cc1 [Example 47, 6-chloro-N-(1-{5-[(4-cyanobenzene-1-carbonyl)amino]pyridin-2-yl}cyclobutyl)pyridine-3-carboxamide]",2 µM,≥ 10 µM,
"N#Cc1cccc(C(=O)Nc2ccc(C3(NC(=O)c4ccc(Cl)nc4)CCC3)nc2)c1 [Example 48, 6-chloro-N-(1-{5-[(3-cyanobenzene-1-carbonyl)amino]pyridin-2-yl}cyclobutyl)pyridine-3-carboxamide]",0.035 µM,≥ 10 µM,
"N#Cc1cncc(C(=O)Nc2ccc(C3(NC(=O)c4ccc(Cl)nc4)CCC3)nc2)c1 [Example 49, N-(6-{1-[(6-chloropyridine-3-carbonyl)amino]cyclobutyl}pyridin-3-yl)-5-cyanopyridine-3-carboxamide]",1.21 µM,≥ 10 µM,
"O=C(NC1(c2ccc(NC(=O)c3ncccn3)cn2)CCC1)c1ccc(Cl)nc1 [Example 50, N-(6-{1-[(6-chloropyridine-3-carbonyl)amino]cyclobutyl}pyridin-3-yl)pyrimidine-2-carboxamide]",1.7 µM,≥ 10 µM,
"O=C(Nc1ccc(C2(NC(=O)c3ccc(Cl)nc3)CCC2)nc1)c1cccc(F)c1 [Example 51, 6-chloro-N-(1-{5-[(3-fluorobenzene-1-carbonyl)amino]pyridin-2-yl}cyclobutyl)pyridine-3-carboxamide]",0.02 µM,≥ 10 µM,
"O=C(Nc1ccc(C2(C(=O)Nc3ccc(F)cc3)CCC2)nc1CO)c1cccc(Cl)c1 [Example 55, 3-Chloro-N-(6-(1-((4-fluorophenyl)carbamoyl)cyclobutyl)-2-(hydroxymethyl)pyridin-3-yl)benzamide]",0.002 µM,,0.009 µM
